Data: article PMC12476087, “Loading of Dicarboxylatoplatinum(II)‐NHC Complexes in Bacterial Ghosts as an Advanced Development in Cancer Therapy” (Archiv Der Pharmazie, 2025)

Assays:
Format in all cases: cell-based
A2780wt cells [1] = test: MTT assay, A2780wt cells; details: MTT assay, 72 h exposure
Experimental: (§1) Carboplatin, a second‐generation platinum drug commonly used as part of standard first‐line chemotherapy for ovarian carcinoma, was examined as a reference compound due to its clinical relevance. Additionally, the nonmalignant bone marrow stromal cell line HS‐5 was included as a control to assess specificity of the complexes toward cancer cells.
(§2) Unloaded BGs (4 × 10^8 EcN or 2 × 10^8 Ec NM522, which is equivalent to the highest tested BG concentration) were tested as controls.
(§3) The exponentially growing cells were seeded at a density of 8 × 10^3 cells/well (A2780wt/cis) or 1 × 10^4 cells/well (HS‐5), respectively, into clear flat‐bottom 96‐well plates in triplicates. […] After another 72 h of incubation, the cellular metabolic activity was measured as an indicator of cell viability employing an MTT assay. Hereby, 20 µL of a 5 mg/mL MTT solution was added to each well, respectively. After 3 h of incubation, the medium was discarded, and the formazan crystals formed were dissolved in DMSO for 15 min with gentle shaking. […] The OD at 620 nm was subtracted from the OD at 595 nm. The OD of the medium was subtracted to exclude the unspecific staining caused by FCS‐containing medium. Cells treated with vehicle control (0.1% DMF) only were set at 100% metabolic activity. The IC50 values were calculated with Prism 8.0 (GraphPad Software Inc., Boston, MA, USA) using nonlinear regression. Significance was evaluated via a one sample t‐test performed with Prism 8.0.

A2780cis cells [2] = test: MTT assay, A2780cis cells
Experimental: as §1, §2, §3

HS‐5 cells = test: MTT assay, HS‐5 cells; details: 72 h exposure, nonmalignant bone marrow stromal cells
Experimental: as §1
The exponentially growing cells were seeded at a density of 8 × 10^3 cells/well (A2780wt/cis) or 1 × 10^4 cells/well (HS‐5), respectively, into clear flat‐bottom 96‐well plates in triplicates. Following 24 h of incubation for the adherence of the cells at 37°C in a humidified atmosphere (5% CO2/95% air), the test compounds were added. […] For the evaluation of the cell growth inhibition by the compounds loaded in BGs, the BG suspensions were directly diluted in RPMI 1640 to the desired testing concentration (25 µM). After another 72 h of incubation, the cellular metabolic activity was measured as an indicator of cell viability employing an MTT assay. Hereby, 20 µL of a 5 mg/mL MTT solution was added to each well, respectively. After 3 h of incubation, the medium was discarded, and the formazan crystals formed were dissolved in DMSO for 15 min with gentle shaking. Afterward, the optical density (OD) was measured at 595 and 620 nm, respectively on an EnSpire Multimode Plate Reader (revvity, Waltham, MA, USA). The OD at 620 nm was subtracted from the OD at 595 nm. The OD of the medium was subtracted to exclude the unspecific staining caused by FCS‐containing medium. Cells treated with vehicle control (0.1% DMF) only were set at 100% metabolic activity. The IC50 values were calculated with Prism 8.0 (GraphPad Software Inc., Boston, MA, USA) using nonlinear regression. Significance was evaluated via a one sample t‐test performed with Prism 8.0.

A2780wt cells [3] = test: Comet assay (intracellular DNA damage); details: 50 µM, 48 h incubation
Experimental: Given that platinum‐based drugs are known to commonly induce DNA damage, a comet assay was conducted using A2780wt cells. This assay detects DNA damage such as DNA single/double strand breaks and DNA fragmentation, a common feature of apoptosis. […] DMF (0.1%)‐treated cells were used as a negative control to establish baseline DNA integrity.
Cellular DNA damage can be visualized by employing a comet assay, which is a single cell gel electrophoresis assay. Hereby, A2780wt cells were seeded at a density of 2 × 10^6 into 25 cm^2 flasks. After letting the cells adhere for 24 h in a humidified atmosphere, the cell culture medium was exchanged for medium containing the respective compound. The cells were then incubated for 48 h with the platinum complexes or 4 h with etoposide, respectively. After incubation, the cell growth was stopped by removing the compound‐containing medium, washing the cells with phosphate‐buffered saline (PBS) and detaching them with a rubber policeman. The detached cells were then centrifuged at 700g for 2 min and the resulting pellet was then washed with 5 mL of PBS. After that, the cells were adjusted to a concentration of 1 × 10^6 cells/mL and were resuspended in ice cold PBS. A total of 75 µL of liquified agarose per condition was transferred onto the slide to create a base layer. This base layer was solidified by transferring the slide to 4°C for 15 min. Afterwards, 10 µL of the above‐mentioned cell suspension in PBS were mixed with 90 µL of agarose. A total of 75 µL of this was added to each base layer, respectively. This layer was also allowed to solidify at 4°C for 15 min. The slide was then transferred to a small basin which contained pre‐chilled lysis buffer (14.6 g NaCl, 20 mL EDTA solution, 10 mL lysis solution, 10 mL DMSO, 60 mL deionized H2O), where it remained for 45 min in the dark at 4°C. The lysis buffer was then aspirated and exchanged with a pre‐chilled alkaline solution (1.2 g NaOH, 0.2 mL EDTA solution, 100 mL deionized H2O), where it remained for further 30 min in the dark at 4°C. The slide was then transferred to a horizontal electrophoresis chamber which was filled with cold alkaline solution. The electrophoresis conditions were set to 1.5 V/cm and 300 mA for 20 min. After the electrophoresis, the slide was transferred into a small basin containing pre‐chilled, deionized H2O. After 2 min, the water was aspirated and this washing step was repeated twice more. After the final rinse, the slide was submerged in 70% ethanol for 5 min. Once the slide has dried, 100 µL of diluted Vista Green DNA Dye was added to each well. After 15 min of incubation, the slides were analyzed on an IX‐70 epifluorescence microscope (Olympus, Shinjuku, Japan) using a FITC filter.

A2780wt cells [4] = test: Annexin V/PI staining and FACS analysis, A2780wt; details: reference at 50 µM, 24 h
Experimental: (§4) Therefore, we aimed to evaluate the apoptosis and necrosis inducing potential of complexes 1–4 via a fluorescent‐activated cell sorting (FACS) analysis with Annexin V/propidium iodide (PI) staining in A2780wt and A2780cis cells. Cells were treated for 24 h with both the free and BG‐loaded forms of each compound at 25 µM. Carboplatin (50 µM) served as a reference.
(§5) To evaluate the mode of cell death, a FACS measurement after staining with Annexin V and PI was conducted. First, 0.3 × 10^6 A2780wt or A2780cis cells were seeded into 12‐well plates and were allowed to adhere for 24 h. The compounds were added at 25 µM, either diluted from a freshly prepared DMF stock solution (0.1% DMF) or freshly thawed when loaded in BGs. After 24 h of incubation, the cells were harvested with accutase and washed with PBS. The cells were then resuspended in 200 µL of PBS each and 1 µL of PI solution (Sigma‐Aldrich, Taufkirchen, Germany) and 1 µL of Annexin V‐FITC (MabTag GmbH, Friesoythe, Germany) were added to each sample. These were then incubated for 20 min at rt under light‐protected conditions and afterward transferred onto ice. The percentage of apoptotic cells was determined by analyzing Annexin V positive /PI negative cells using a BD LSRFortessa flow cytometer and BD FACSDiva software (both BD Biosciences, San Jose, CA, USA). The apoptosis analysis included the evaluation of early apoptosis (Annexin V positive/PI negative) and late apoptosis/necrosis (Annexin V positive /PI positive).

A2780cis cells [5] = test: Annexin V/PI staining and FACS analysis, A2780cis; details: reference at 50 µM, 24 h
Experimental: as §4, §5

[6] = tested on: surface calreticulin on A2780wt cells; test: Immunofluorescent surface calreticulin staining, A2780wt; details: oxaliplatin at 1 µM for 24 h
Experimental: (§6) Oxaliplatin, a known metal‐based ICD inducer, was included for comparison.
(§7) A2780wt or A2780cis cells were seeded at a density of 1.2 × 10^5 on cover slips and allowed to adhere for 24 h. […] Subsequently, the cells were washed again three times with PBS and they were incubated after adding the secondary antibody (Alexa‐Fluor‐conjugated anti‐rabbit, 1:200), for 45 min at rt. Subsequently, the cells were washed again three times with PBS and they were mounted on slides with mounting medium. After letting them dry overnight, visualization was performed by spinning disk confocal microscopy. […] Acquired images were background subtracted, individual cells were manually segmented, and fluorescence intensity for the calreticulin staining was quantified with a FIJI software. Two repetitions of the experiment were performed, where at least 20 cells per condition were analyzed and the mean intensity of each sample was calculated, respectively.

[7] = tested on: surface calreticulin on A2780cis cells; test: Immunofluorescent surface calreticulin staining, A2780cis; details: oxaliplatin at 1 µM for 24 h
Experimental: as §6, §7

How did the IC50 (A2780wt cells [1]) turn out when `[NH2][Pt]1([NH2])[O]C(=O)C2(CCC2)C(=O)[O]1` [Carboplatin, (SP‐4‐2)‐diammine(1,1‐cyclobutanedicarboxylato)platinum(II), reference compound] was run?
Its IC50 is 33.6 ± 2.1 µM.

What about the “Resistance factor RF = IC50(A2780cis)/IC50(A2780wt)” value (A2780cis cells [2]; 72 h) of the same compound?
Its value is 3.1.

And the IC50 (A2780cis cells [2]; 72 h exposure)?
Its IC50 is 104 ± 11.5 µM.

And the IC50 (HS‐5 cells)?
Its IC50 is 24.4 ± 0.99 µM.

And the “intracellular DNA damage (comet formation)” value (A2780wt cells [3])?
The value was “did not show any evidence of comet formation”.

What about the early apoptosis (A2780wt cells [4]) of the same compound?
The early apoptosis was 7.90 ± 0.29.

What about the late apoptosis/ necrosis (A2780wt cells [4]) of the same compound?
Its late apoptosis/ necrosis is 16.8 ± 0.69.

What about the early apoptosis (A2780cis cells [5]) of the same compound?
Its early apoptosis is 6.47 ± 1.75.

And the late apoptosis/ necrosis (A2780cis cells [5])?
Its late apoptosis/ necrosis is 12.6 ± 1.17.

With `O=C1[O][Pt]2([NH][C@@H]3CCCC[C@H]3[NH]2)[O]C1=O` [oxaliplatin, (SP‐4‐2)‐(1R,2R‐diaminocyclohexane)oxalatoplatinum(II), reference compound] as the compound, how does the “x‐fold intensity of surface calreticulin compared to untreated cells” value [6] read?
Its value is 0.86 ± 0.24 x‐fold.

And the “x‐fold intensity of surface calreticulin compared to untreated cells” value [7]?
Its value is 1.36 ± 0.24 x‐fold.
